Literature values as cited in patent US11766470B2, “Manufacture, formulation and dosing of apraglutide” (VectivBio AG, priority 2020, dated 2023).
Where two headings read alike, the source gives them in different places.

Columns and labels:
[1] = dosed once daily; cited from earlier work
[2] = cited from earlier work
[3] = cited from earlier work; remark: listed apart in the source

## CC[C@H](C)[C@H](NC(=O)[C@H](Cc1ccccc1)NC(=O)[C@H](CC(=O)O)NC(=O)[C@H](CCCNC(=N)N)NC(=O)[C@H](C)NC(=O)[C@H](C)NC(=O)[C@H](CC(C)C)NC(=O)[C@H](CC(N)=O)NC(=O)[C@H](CC(=O)O)NC(=O)[C@H](CC(C)C)NC(=O)[C@@H](NC(=O)[C@@H](NC(=O)[C@H](CC(N)=O)NC(=O)[C@H](CCSC)NC(=O)[C@H](CCC(=O)O)NC(=O)[C@H](CC(=O)O)NC(=O)[C@H](CO)NC(=O)[C@H](Cc1ccccc1)NC(=O)[C@H](CO)NC(=O)CNC(=O)[C@H](CC(=O)O)NC(=O)CNC(=O)[C@@H](N)Cc1c[nH]cn1)[C@@H](C)O)[C@@H](C)CC)C(=O)N[C@@H](CC(N)=O)C(=O)N[C@@H](Cc1c[nH]c2ccccc12)C(=O)N[C@@H](CC(C)C)C(=O)N[C@H](C(=O)N[C@@H](CCC(N)=O)C(=O)N[C@H](C(=O)N[C@@H](CCCCN)C(=O)N[C@H](C(=O)N[C@H](C(=O)N[C@@H](CC(=O)O)C(=O)O)[C@@H](C)O)[C@@H](C)CC)[C@@H](C)O)[C@@H](C)CC [teduglutide]
[1]
  Change from baseline increase in urinary input: 139.3%
  Change in baseline in energy absorption: 792 kJ/day
  Change in baseline in wet weight absorption: 743 g/day

## Glucagon-like peptide 2 [GLP-2, reference compound]
[2]
  Half-life t½: 10 min

## glepaglutide
[3]; 0.1 mg dose once daily
  Change from baseline increase in urinary output: 111%
  Change in baseline in energy absorption: -377 kJ/day
  Change in baseline in wet weight absorption: -211 g/day
[3]; 1.0 mg dose once daily
  Change from baseline increase in urinary output: 140%
  Change in baseline in energy absorption: 435 kJ/day
  Change in baseline in wet weight absorption: 650 g/day
[3]; 10 mg dose once daily
  Change from baseline increase in urinary output: 132%
  Change in baseline in energy absorption: 588 kJ/day
  Change in baseline in wet weight absorption: 786 g/day
